{"source": "PubChem BioAssay AID200", "about": "(DTP/NCI, 2004)", "test_system": "B6C3F1 mice, B16 melanoma ip, median survival T/C", "assay": "NCI In Vivo Anticancer Drug Screen. Data for tumor model B16 Melanoma (intraperitoneal) in B6C3F1 mice", "conditions": "endpoint: median survival time, higher = longer survival", "in_short": "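Transplantable tumor in mice; treated vs vehicle control groups; survival or tumor size measured; value = T/C ratio.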", "key": {"[1]": {"conditions": "dose: 12.5 mg/kg/injection, schedule: Q01DX009 (ip), vehicle: Klucel (hydroxypropylcellulose) (HPC)"}, "[2]": {"conditions": "dose: 25.0 mg/kg/injection, schedule: Q01DX009 (ip), vehicle: Klucel (hydroxypropylcellulose) (HPC)"}, "[3]": {"conditions": "dose: 50.0 mg/kg/injection, schedule: Q01DX009 (ip), vehicle: Klucel (hydroxypropylcellulose) (HPC)"}, "[4]": {"conditions": "dose: 100.0 mg/kg/injection, schedule: Q01DX009 (ip), vehicle: Klucel (hydroxypropylcellulose) (HPC)"}, "[5]": {"conditions": "dose: 200.0 mg/kg/injection, schedule: Q01DX009 (ip), vehicle: Klucel (hydroxypropylcellulose) (HPC)"}, "[6]": {"conditions": "dose: 400.0 mg/kg/injection, schedule: Q01DX009 (ip), vehicle: Klucel (hydroxypropylcellulose) (HPC)"}, "[7]": {"conditions": "dose: 25.0 mg/kg/injection, schedule: Q01DX009 (ip), vehicle: saline with Tween-80"}, "[8]": {"conditions": "dose: 50.0 mg/kg/injection, schedule: Q01DX009 (ip), vehicle: saline with Tween-80"}}, "note": "Where “and” joins values, the source holds several entries; their conditions need not be identical. Equal values may be shown once. Inconclusive results and toxic doses are left out.", "data": [{"smiles": "O=C(O)C1(NO)CCCCC1", "values": [{"measurement": "T/C", "setting": "[1]", "value": "103 % of control and 105 % of control"}, {"measurement": "T/C", "setting": "[2]", "value": "111 % of control and 98 % of control"}, {"measurement": "T/C", "setting": "[3]", "value": "111 % of control and 105 % of control"}, {"measurement": "T/C", "setting": "[4]", "value": "110 % of control and 107 % of control"}, {"measurement": "T/C", "setting": "[5]", "value": "103 % of control and 108 % of control"}, {"measurement": "T/C", "setting": "[6]", "value": "113 % of control and 106 % of control"}]}, {"smiles": "CCCC(NC(=O)CN)C(=O)O", "note": "(stereo unspecified)", "values": [{"measurement": "T/C", "setting": "dose: 25.0 mg/kg/injection, schedule: Q01DX009 (ip), vehicle: saline", "value": "108 % of control"}, {"measurement": "T/C", "setting": "dose: 50.0 mg/kg/injection, schedule: Q01DX009 (ip), vehicle: saline", "value": "100 % of control"}, {"measurement": "T/C", "setting": "dose: 100.0 mg/kg/injection, schedule: Q01DX009 (ip), vehicle: saline", "value": "99 % of control"}, {"measurement": "T/C", "setting": "dose: 200.0 mg/kg/injection, schedule: Q01DX009 (ip), vehicle: saline", "value": "94 % of control"}, {"measurement": "T/C", "setting": "dose: 400.0 mg/kg/injection, schedule: Q01DX009 (ip), vehicle: saline", "value": "108 % of control"}]}, {"smiles": "COC(=O)[C@@]12OC[C@]34[C@H]([C@@H](O)[C@@H]1O)[C@@]1(C)CC(=O)C(OC(=O)CC(=O)OC5=C(C)[C@@H]6C[C@H]7OC(=O)[C@H](OC(=O)/C=C(\\C)C(C)C)[C@H]8[C@]9(C(=O)OC)OC[C@]78[C@H]([C@@H](O)[C@@H]9O)[C@@]6(C)CC5=O)=C(C)[C@@H]1C[C@H]3OC(=O)[C@H](OC(=O)/C=C(\\C)C(C)C)[C@@H]24", "values": [{"measurement": "T/C", "setting": "dose: 1.5 mg/kg/injection, schedule: Q01DX009 (ip), vehicle: saline + Tween-80 + alcohol", "value": "154 % of control"}]}, {"smiles": "OCC1OC(n2cnc3c(NO)ncnc32)C(O)C1O", "note": "(stereo unspecified)", "values": [{"measurement": "T/C", "setting": "[1]", "value": "101 % of control and 105 % of control"}, {"measurement": "T/C", "setting": "[2]", "value": "93 % of control and 100 % of control"}, {"measurement": "T/C", "setting": "[3]", "value": "96 % of control and 98 % of control"}, {"measurement": "T/C", "setting": "[4]", "value": "97 % of control and 101 % of control"}, {"measurement": "T/C", "setting": "[5]", "value": "91 % of control and 95 % of control"}, {"measurement": "T/C", "setting": "[6]", "value": "86 % of control and 87 % of control"}]}, {"smiles": "CN(C)CCN1C(=O)c2cccc3cc([N+](=O)[O-])cc(c23)C1=O", "values": [{"measurement": "T/C", "setting": "dose: 0.37 mg/kg/injection, schedule: Q01DX009 (ip), vehicle: saline with Tween-80", "value": "105 % of control"}, {"measurement": "T/C", "setting": "dose: 0.75 mg/kg/injection, schedule: Q01DX009 (ip), vehicle: saline with Tween-80", "value": "107 % of control"}, {"measurement": "T/C", "setting": "dose: 1.5 mg/kg/injection, schedule: Q01DX009 (ip), vehicle: saline with Tween-80", "value": "112 % of control"}, {"measurement": "T/C", "setting": "dose: 1.56 mg/kg/injection, schedule: Q01DX009 (ip), vehicle: saline with Tween-80", "value": "117 % of control"}, {"measurement": "T/C", "setting": "dose: 3.0 mg/kg/injection, schedule: Q01DX009 (ip), vehicle: saline with Tween-80", "value": "102 % of control"}, {"measurement": "T/C", "setting": "dose: 12.0 mg/kg/injection, schedule: Q01DX009 (ip), vehicle: saline with Tween-80", "value": "88 % of control"}]}, {"smiles": "O=C(Nc1ccc([N+](=O)[O-])cc1)Nc1nncs1", "values": [{"measurement": "T/C", "setting": "dose: 25.0 mg/kg/injection, schedule: Q01DX009 (ip), vehicle: distilled water + Tween-80", "value": "122 % of control and 103 % of control"}, {"measurement": "T/C", "setting": "dose: 50.0 mg/kg/injection, schedule: Q01DX009 (ip), vehicle: distilled water + Tween-80", "value": "112 % of control and 113 % of control"}, {"measurement": "T/C", "setting": "dose: 200.0 mg/kg/injection, schedule: Q01DX009 (ip), vehicle: distilled water + Tween-80", "value": "120 % of control"}]}, {"smiles": "Cc1ncc(CO)c(CO)c1O", "values": [{"measurement": "T/C", "setting": "dose: 50.0 mg/kg/injection, schedule: Q03HX009 (ip), vehicle: suspension in saline", "value": "106 % of control"}, {"measurement": "T/C", "setting": "dose: 100.0 mg/kg/injection, schedule: Q03HX009 (ip), vehicle: suspension in saline", "value": "102 % of control"}, {"measurement": "T/C", "setting": "dose: 200.0 mg/kg/injection, schedule: Q03HX009 (ip), vehicle: suspension in saline", "value": "102 % of control"}, {"measurement": "T/C", "setting": "dose: 400.0 mg/kg/injection, schedule: Q03HX009 (ip), vehicle: suspension in saline", "value": "98 % of control"}, {"measurement": "T/C", "setting": "dose: 800.0 mg/kg/injection, schedule: Q03HX009 (ip), vehicle: suspension in saline", "value": "96 % of control"}]}, {"smiles": "O=C(O)COc1ccc(-c2ccc(Br)cc2)cc1", "values": [{"measurement": "T/C", "setting": "[7]", "value": "95 % of control"}, {"measurement": "T/C", "setting": "[8]", "value": "98 % of control"}, {"measurement": "T/C", "setting": "dose: 100.0 mg/kg/injection, schedule: Q01DX009 (ip), vehicle: saline with Tween-80", "value": "87 % of control"}, {"measurement": "T/C", "setting": "dose: 200.0 mg/kg/injection, schedule: Q01DX009 (ip), vehicle: saline with Tween-80", "value": "96 % of control"}, {"measurement": "T/C", "setting": "dose: 400.0 mg/kg/injection, schedule: Q01DX009 (ip), vehicle: saline with Tween-80", "value": "94 % of control"}]}, {"smiles": "Nc1nc(=S)c2ncn(C3OC(COC(=O)c4ccccc4)C(OC(=O)c4ccccc4)C3OC(=O)c3ccccc3)c2[nH]1", "note": "(stereo unspecified)", "values": [{"measurement": "T/C", "setting": "dose: 6.25 mg/kg/injection, schedule: Q01DX009 (ip), vehicle: saline with Tween-80", "value": "112 % of control"}, {"measurement": "T/C", "setting": "dose: 12.5 mg/kg/injection, schedule: Q01DX009 (ip), vehicle: saline with Tween-80", "value": "117 % of control"}, {"measurement": "T/C", "setting": "[7]", "value": "111 % of control"}, {"measurement": "T/C", "setting": "[8]", "value": "97 % of control"}]}, {"smiles": "O=C1N[C@H]2[C@H](CS[C@H]2CCCCC(=O)N(CCP(c2ccccc2)c2ccccc2)CCP(c2ccccc2)c2ccccc2)N1", "values": [{"measurement": "T/C", "setting": "[2]", "value": "110 % of control and 97 % of control"}, {"measurement": "T/C", "setting": "[3]", "value": "109 % of control and 101 % of control"}, {"measurement": "T/C", "setting": "[4]", "value": "105 % of control"}, {"measurement": "T/C", "setting": "[5]", "value": "113 % of control"}, {"measurement": "T/C", "setting": "[6]", "value": "101 % of control"}]}]}
